Laboratory results from BindingDB's records for doi:10.1124/mol.107.042622 (The Johns Hopkins University, 2008).

Each compound was assayed against DNA-(apurinic or apyrimidinic site) endonuclease (Homo sapiens, UniProt P27695) (assay: High-Throughput Screening and IC50 Determinations). Settings: pH 7.5; 22 °C.
Experimental: The screening assay was performed using 384-well microtiter plate first spotted with test compounds. Then Ape1 in reaction buffer was added to each well. The reaction was initiated through the addition of substrate. After incubation, the final fluorescence was measured using a FLUOstar Optima plate reader (BMG Labtech GmbH, Offenburg, Germany) at excitation and emission wavelengths of 485 and 520 nm, respectively. IC50 analyses were carried out on the best hits by first plating 10-fold dilutions of each inhibitor onto 384-well plates. Using the initial rate values, percentage activity was calculated for each sample relative to a negative (DMSO only) control. The data were fitted to a sigmoidal dose-response model using Prism software (GraphPad Software, San Diego, CA).

Sequence of DNA-(apurinic or apyrimidinic site) endonuclease (P27695 whole entry): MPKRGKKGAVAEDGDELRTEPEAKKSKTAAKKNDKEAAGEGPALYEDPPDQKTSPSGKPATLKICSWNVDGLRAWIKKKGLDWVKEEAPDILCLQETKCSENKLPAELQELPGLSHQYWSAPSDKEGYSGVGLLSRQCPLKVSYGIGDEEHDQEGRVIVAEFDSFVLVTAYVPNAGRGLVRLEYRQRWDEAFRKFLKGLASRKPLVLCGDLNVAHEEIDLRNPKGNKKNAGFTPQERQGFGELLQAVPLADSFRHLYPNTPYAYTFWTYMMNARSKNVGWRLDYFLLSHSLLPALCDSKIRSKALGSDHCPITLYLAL

SMILES	IC50	Ki
O=C(O)c1cc[c]([Sb](=[O])([OH])[OH])cc1[N+](=O)[O-] [4-[dihydroxy(oxo)--stibanyl]-2-nitrobenzoic acid]	4 nM	19 nM
O=C(O)/C=C/c1ccc[c]([Sb](=[O])([OH])[OH])c1 [(2E)-3-{3-[dihydroxy(oxo)--stibanyl]phenyl}prop-2-enoic acid]	200 nM	
O=C(Nc1cc[c]([Sb](=[O])([OH])[OH])cc1)c1ccccc1 [N-{4-[dihydroxy(oxo)--stibanyl]phenyl}benzamide]	300 nM	
CCOC(=O)CCCc1cc[c]([Sb](=[O])([OH])[OH])cc1 [ethyl 4-{4-[dihydroxy(oxo)--stibanyl]phenyl}butanoate]	17 nM	36 nM
